Reference: patent US20230233695A1, “MITHRAMYCIN A NANOPARTICLES FOR CANCER TREATMENT” (priority 2021, published 2023)
Where two headings read alike, the source gives them in different places.

Columns and labels:
NR0B1 = experiment: RT-qPCR, NR0B1 mRNA expression; format: cell-based; conditions: 10 nM, 3 cell lines tested
Protocol: (§1) Assessment of mRNA expression by RT-qPCR. Total RNA was extracted from EWS:Fli1^+ cell cultures (TC-71, A673, and RD-ES) exposed to 10 nM of MithA/MANP (final concentration) or DMSO, (0.01% v/v) vehicle and blank polymer for 24 hours by the RNeasy technique with RNeasy columns with on-column DNAse I digestion (Qiagen, Valencia, Calif.) according to the manufacturer's instructions. The concentration and purity of the extracts were determined by UV absorbance at 230/260/280/320 nm wavelengths using a Tecan Infinite M200 spectrophotometer. Template cDNA was synthesized from […] of RNA extract by reverse-transcription using the Quantitect RT kit (Qiagen). Oligonucleotide primer sequences and more detailed information described in Supplemental Table S4). RT-PCR was performed using Quantitect SYBR-green qPCR reagents in a Mastercycler ep Realplex2 instrument (Eppendorf AG, Hamburg, Germany). […] Relative quantification of mRNA expression between MithA/MANP or vehicle/blank polymer treated cells were semi-quantitatively calculated by comparing the average threshold cycle (Ct) for the treated samples to the average Ct for untreated samples (Vehicle or blank polymer. Amplification efficiency was determined for each primer set, and the Pfaffl equation to determine relative fold change in gene expression. Beta-actin was used as the housekeeping gene for normalization.

[1] = human, in vivo; cited from earlier work
Female C57BL/6J mice = experiment: In vivo toxicity: hematology; set-up: lymphocytes (% WBC) / granulocytes (% WBC): concentration or dose not given beside the values
Protocol: In vivo toxicity of MithA and MANP. Cohorts of n=6-7 C57BL/6J females, 8-10 wko were randomized to receive either intravenous or intraperitoneal administration of saline control vehicle, blank polymer, MithA, or MANP as described in TABLES 2A and 2B. Body weight loss exceeding 20%, death, morbidity, changes in behavior, and any other sign of local or systemic toxicity were recorded.
For hematology, blood was collected 24 h after the last dose by venipuncture of the tail or mandibular veins. Blood (>100 uL) was transferred to Sarstedt EDTA tubes and held on ice until differential complete blood count was performed using Abaxis VetScan HM2 hematology analyzer (Union City, Calif.). Samples were analyzed within 8 hours of collection. Giemsa-stained blood smears were also obtained for manual differentiation of granulocytes, as the instrument is not able to discriminate neutrophils, eosinophils, or basophils due to inefficient lysis of mouse granulocytes by this system.

CHLA-25 = experiment: XTT cell viability assay, CHLA-25; format: cell-based; conditions: 72 h, read-out: Viability IC50
Protocol: (§2) Cell viability assays. For viability assays, four EWS:Fli1 fusion tumor cell lines (RD-ES, SK-ES-1, A673, and TC-71), one human embryonic kidney cell line (293.T), one ES tumor cell line with ERG fusion (CHLA-25), one fetal kidney cell line (HEK293.T), one hepatoblastoma cell line (HepG2), one chronic myeloid leukemia (MEG-01), and one acute monocytic leukemia (THP-1) cell line were plated at 5000 cells/well in 100 μL growth media in 96-well plates. After overnight incubation, 50 μL of growth media containing mithramycin A (MithA) (Cayman Chemical, Ann Arbor, Mi. Item Number 11434) or boronic acid-conjugated nano-MithA (MANP) (0.12 nM to 500 nM, final) or dimethyl sulfoxide (DMSO, 0.01% v/v) vehicle was added to the wells, and cell viability assays were performed 72 hours later. The cells were incubated with the activated-XTT solution (mixture of 2% final concentration of activation reagent with the XTT reagent) from ATCC (Catalog Number 30-1011K, XTT Cell Proliferation Assay Kit) for 3 hours prior to recording absorbance. The cell viability was determined by measuring the absorbance wavelength at 475 nm and reference wavelength at 650 nm on an Infinite M200 plate reader (Tecan Group, Ltd. Mannedorf, Switzerland). […]

THP-1 = experiment: XTT cell viability assay, THP-1; format: cell-based; conditions: Homo sapiens, THP-1, 72 h, read-out: Viability IC50
Protocol: as §2

Rad51 = experiment: RT-qPCR, Rad51 mRNA expression; format: cell-based; conditions: 10 nM, 3 cell lines tested
Protocol: as §1

SK-ES-1 = experiment: XTT cell viability assay, SK-ES-1; format: cell-based; conditions: Homo sapiens, SK-ES1, 72 h, read-out: Viability IC50
Protocol: as §2

A673 = experiment: XTT cell viability assay, A673; format: cell-based; conditions: Homo sapiens, A673, 72 h, read-out: Viability IC50
Protocol: as §2

HepG2 = experiment: XTT cell viability assay, HepG2; format: cell-based, human
Protocol: as §2

MEG-01 = experiment: XTT cell viability assay, MEG-01; format: cell-based; conditions: read-out: Viability IC50, MEG-01, chronic myeloid leukemia, BRC:ABL, 72 hours
Protocol: as §2

[2] = tested on: TC-71 (EWS:Fli1+) xenograft tumor; conditions: 1 mg/kg, five i.v. injections on alternating days
Protocol: In vivo anti-tumor efficacy. […] On alternating days following inoculation, body weight was recorded, and tumor volume was measured using digital calipers. As each mouse achieved a measurable tumor volume of 200 mm^3, they were randomly allocated saline control vehicle, blank polymer (nano-formulation without MithA conjugation), 1 mg/kg MithA, or 1 mg/kg MANP (1 mg/kg eq. MithA) treatment groups until n=10/group was reached. Mice received 5 intravenous injections of the designated treatment via tail vein, given on alternating day schedule (e.g. M-W-F-Su-Tu). After treatment, tumors were allowed to grow to 1.5 cm^3, at which point the mice were euthanized by CO2 inhalation (FIG. 4.1.). The tumor volume was calculated by the equation: Tumor volume=(L×W^2)/2, in which L and W are the longest and shortest in tumor diameters (mm), respectively. Survival duration was calculated as the number of days for tumor volume to increase from 200 to 1500 mm^3.
Statistical analysis. Microsoft Excel was used to organize data and obtain descriptive statistics (mean and standard deviation). […] For Western blot, tumor-bearing xenograft, and toxicity studies, one-way ANOVA with Bonferroni correction and multiple comparisons were performed using Prism 9. […] For xenograft studies, survival data were used to construct Kaplan-Meier plots and statistical significance of differences between treatment groups (n=10-11/group) was determined by the log-rank test. Differences were accepted as statistically significant when the p-value was ≤0.05.
EWS:Fli1+ cells = conditions: previous study; read-out: average IC50 in EWS:Fli1 cell lines, previous study; cited from earlier work
[3] = 5x2 mg/kg i.v., in comparison to saline vehicle

For CO[C@H](C(=O)[C@@H](O)[C@@H](C)O)[C@@H]1Cc2cc3cc(O[C@H]4C[C@@H](O[C@H]5C[C@@H](O)[C@H](O)[C@@H](C)O5)[C@H](O)[C@@H](C)O4)c(C)c(O)c3c(O)c2C(=O)[C@H]1O[C@H]1C[C@@H](O[C@H]2C[C@@H](O[C@H]3C[C@](C)(O)[C@H](O)[C@@H](C)O3)[C@@H](O)[C@@H](C)O2)[C@H](O)[C@@H](C)O1 [MithA, (2S,3S)-2-[(2S,4R,5R,6R)-4-[(2S,4R,5S,6R)-4-[(2S,4S,5R,6R)-4,5-dihydroxy-4,6-dimethyloxan-2-yl]oxy-5-hydroxy-6-methyloxan-2-yl]oxy-5-hydroxy-6-methyloxan-2-yl]oxy-3-[(1 S,3S,4R)-3,4-dihydroxy-1-methoxy-2-oxopentyl]-6-[(2S,4R,5R,6R)-4-[(2S,4R,5S,6R)-4,5-dihydroxy-6-methyloxan-2-yl]oxy-5-hydroxy-6-methyloxan-2-yl]oxy-8,9-dihydroxy-7-methyl-3,4-dihydro-2H-anthracen-1-one], the “NR0B1 mRNA expression” value (NR0B1) is given as “unable to detect significant inhibition”, the “ALT and AST elevations, increase in geometric mean” value [1] is given as “greater than 13 fold” and the “treated patients who developed hepatotoxicity” value [1] is given as 10/12. The “thrombocytopenia / platelet dysfunction” value (Female C57BL/6J mice; 5x2 mg/kg (eq.) i.v.) was “displayed thrombocytopenia”, the “decrease of plateletcrit (%)” value (Female C57BL/6J mice; [3]) was 3.4 fold and the “decrease of total platelet count” value (Female C57BL/6J mice; [3]) was 3.6 fold. For the same molecule, the “red blood cell (RBC) parameters” value (Female C57BL/6J mice; 5x4 mg/kg i.p.) was “no significant changes”, the “total white blood cell (WBC) count” value (Female C57BL/6J mice; 5x4 mg/kg i.p., relative to controls) was “no significant difference” and the “granulocytes (% Gran)” value (Female C57BL/6J mice; 5x4 mg/kg i.p., vs saline (P=0.001)) was “increased”. The “lymphocytes (% LYM)” value (Female C57BL/6J mice; 5x4 mg/kg i.p., vs saline (p<0.0001)) was “decreased”, the “monocytes (% MON)” value (Female C57BL/6J mice; 5x4 mg/kg i.p., vs saline (p=0.0187)) was “increased” and the “lymphocytes (% WBC)” value (Female C57BL/6J mice; 5xmg/kg i.v., compared to saline vehicle) was “reduced”. For the same molecule, the “granulocytes (% WBC)” value (Female C57BL/6J mice; 5xmg/kg i.v., compared to saline vehicle (p<0.0001)) was “increased”, the RBC parameters (Female C57BL/6J mice; five i.v. injections on alternating days, between treatment groups) was “No changes” and the plateletcrit (Female C57BL/6J mice; single i.p. 4 mg/kg, vs saline) was “significant reductions”. The mean corpuscular hemoglobin (Female C57BL/6J mice; single i.p. 4 mg/kg, vs saline (p=0.002)) was “significant reductions”, the total platelet count (Female C57BL/6J mice; single i.p. 4 mg/kg, vs saline (p=0.0251)) was “significant reductions” and the IC50 (CHLA-25) was 349 nM. The IC50 (THP-1) was 234 nM, the “Rad51 mRNA expression” value (Rad51) was “unable to detect significant inhibition” and the IC50 (SK-ES-1) was 11.9 nM. For the same molecule, the IC50 (A673) was 12.4 nM, the IC50 (HepG2; Homo sapiens, HepG2, 72 h, read-out: Viability IC50, HepG2, hepatoblastoma) was 24.9 nM and the IC50 (HepG2; read-out: Viability IC50, HepG2, hepatoblastoma, 72 hours) was 24.9 nM. For the same molecule, the IC50 (MEG-01) was 37.8 nM, the “body weight in tumor-bearing mice” value [2] was “no loss of body weight was observed” and the “survival, range” value [2] was 12 to 35 days. For the same molecule, the median survival ([2]; days for tumor to grow from 200 to 1500 mm^3) was 20 days and the IC50 (EWS:Fli1+ cells) was 12 nM.
